Where “and” joins values, the source holds several entries; their conditions need not be identical. Identical values can stand only once. Like-named read-outs stand apart in the source and are kept apart here.

The test system of one assay is BT549. The note with it: BT549 cell line; replicate assays; cited from earlier work.
Assay [1] deals with HS578T. Particulars: HS578T cell line; replicate assays; cited from earlier work.
The next assay concerns MCF7. Particulars: MCF7 cell line; replicate assays; cited from earlier work.
A further assay has as its system MDAMB231. Particulars: MDA231 (MDAMB231) cell line; replicate assays; cited from earlier work.
The next assay has as its system T47D. Particulars: T47D cell line; replicate assays; cited from earlier work.
The subject of assay [2] is triple-negative breast cancer cell lines. Particulars: triple-negative breast cancer cell lines (Liu et al. 2009); cited from earlier work.
The subject of assay [3] is HS578T. The assay can be described thus: GI50 of breast cancer cell lines from NCI60 panel. Format: cell-based. Particulars: Homo sapiens, Hs-578T, mean of replicate GI50s, read-out: mean concentration (GI50) (converted). An excerpt: Certain anti-breast cancer therapies have been evaluated in the NCl-60 panel of cancer cell lines (Staunton J E, Slonim D K, Coller H A, Tamayo P, Angelo M J, Park J, Scherf U, Lee J K, Reinhold W O, Weinstein J N and others. 2001. Chemosensitivity prediction by transcriptional profiling. Proc Natl Acad Sci USA 98:10787-92.) including four cell lines we studied (MCF7, MDA-MB-231, HS578T, and T-47D). We have confirmed stable copy numbers for a representative group of target genomic intervals in 5 breast cancer lines (MCF7, MDAMB231, HS578T, T47D and SKBR-3). Despite the lack of stratification in pathology in the tumors studied, genomic architectures and functions were preserved in these regions. Paclitaxel and its derivatives, estrone, estradiol, and topotecan are common therapies that act on multiple products encoded by dually stable genes which may, in part, explain why they are effective for inhibiting growth of these cell lines and for treating breast cancer.

As to `Nc1ccn([C@@H]2O[C@H](CO)[C@@H](O)C2(F)F)c(=O)n1` [Gm, gemcitabane], the GI50 with BT549 is 7.80 −log10M and 8.00 −log10M; in the assay with HS578T [1], 5.65 −log10M and 4.00 −log10M; in the assay on MCF7, 7.99 −log10M and 8.00 −log10M; in the assay with MDAMB231 it was 5.86 −log10M and 6.28 −log10M and 6.03 −log10M; in the assay on T47D, 6.26 −log10M and 8.00 −log10M and 5.86 −log10M.

`S=c1nc[nH]c2nc[nH]c12` [Me, mercaptopurine]: the GI50 was 4.52 −log10M and 3.74 −log10M and 4.00 −log10M in the assay with BT549; 4.85 −log10M and 4.84 −log10M in the assay on HS578T [1]; 5.78 −log10M and 5.74 −log10M and 5.82 −log10M with MCF7; 4.61 −log10M and 5.14 −log10M in the assay with MDAMB231; 5.45 −log10M and 5.62 −log10M with T47D.

On to `CN(C)C(=N)N=C(N)N` [Metformin], for which the anti-cancer activity entry in assay [2] was “has anti-cancer activity”.

On to `CC(=O)O[C@H]1C(=O)[C@@]2(C)[C@H]([C@H](OC(=O)c3ccccc3)[C@]3(O)C[C@H](OC(=O)[C@H](O)[C@@H](NC(=O)c4ccccc4)c4ccccc4)C(C)=C1C3(C)C)[C@]1(OC(C)=O)CO[C@@H]1C[C@@H]2O` [Pa, Paclitaxel], for which the GI50 with HS578T [3] is 0.00316 µM; in the assay with BT549, 9.30 −log10M and 7.60 −log10M and 8.45 −log10M; with HS578T [1], 8.81 −log10M and 8.22 −log10M and 8.52 −log10M; in the assay with MCF7 it was 9.06 −log10M and 8.01 −log10M and 8.53 −log10M; in the assay on MDAMB231, 8.56 −log10M and 7.27 −log10M and 7.91 −log10M; with T47D, 6.56 −log10M and 7.27 −log10M and 6.91 −log10M.

Regarding `CC[C@@]1(O)C(=O)OCc2c1cc1n(c2=O)Cc2cc3c(CN(C)C)c(O)ccc3nc2-1` [To, topotecan], the GI50 was 28.2 µM in the assay with HS578T [3]; 7.36 −log10M and 7.05 −log10M and 7.32 −log10M in the assay on BT549; 5.96 −log10M and 5.14 −log10M and 5.73 −log10M in the assay with HS578T [1]; 8.09 −log10M and 7.79 −log10M and 7.83 −log10M with MCF7; 6.41 −log10M and 5.67 −log10M and 5.65 −log10M in the assay with MDAMB231; 8.24 −log10M and 7.82 −log10M and 7.73 −log10M in the assay on T47D.

Source of the values: patent US9624549B2, “Stable gene targets in breast cancer and use thereof for optimizing therapy” (Cytognomix Inc., priority 2012, dated 2017).
